Consider 37 compounds from PubChem BioAssay AID624129 (Sanford-Burnham Center for Chemical Genomics, 2012).

Molecules are shown by their SMILES. pIC50: −log10 of the molar value. Active and inactive are the calls of the source. How the calls were made is not given here.

In this assay the target is C-X-C chemokine receptor type 6 (Homo sapiens) (UniProt O00574). Put plainly: potency against CXCR6 with APJ panel – cell-based, beta-arrestin, DiscoveRx, uHTS hits, dose response (AID 624129). To be noted: CXCR6 beta-arrestin (DiscoveRx) antagonist cell assay; for outcome: CXCR6, dose range 1; for inhibition: CXCR6, run 2, dose range 1, at 79 µM (top of the series).
Sequence of C-X-C chemokine receptor type 6 (Homo sapiens) (O00574 whole entry, looked up): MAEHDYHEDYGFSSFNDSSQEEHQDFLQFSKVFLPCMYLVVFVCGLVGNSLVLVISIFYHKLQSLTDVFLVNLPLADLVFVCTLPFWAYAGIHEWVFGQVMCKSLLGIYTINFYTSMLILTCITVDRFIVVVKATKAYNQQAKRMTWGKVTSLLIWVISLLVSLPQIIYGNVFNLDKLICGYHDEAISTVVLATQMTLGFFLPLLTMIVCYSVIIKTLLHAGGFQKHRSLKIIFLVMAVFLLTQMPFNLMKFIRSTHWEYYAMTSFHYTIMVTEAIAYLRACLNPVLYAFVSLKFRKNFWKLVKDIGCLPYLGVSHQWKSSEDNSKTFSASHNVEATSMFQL
Setting [1] is: CXCR6, dose range 1, mean IC50 across replicates.

Take `CCCCC(=O)NC(=S)Nc1ccccc1C(=O)Nc1ccccc1`: the result was inactive and the inhibition (as a rule, the drop in the measured response relative to a control, in per cent) was 79.2%. The pIC50 (as a rule, −log10 of the IC50, conventionally taken in molar units) under setting [1] is 4.94. For the setting “CXCR6, run 1, dose range 2”, the pIC50 is 4.98. Moreover, the pIC50 (CXCR6, run 2, dose range 2) was 4.91.
Regarding `Cc1ccc(-n2c(SCCN)nnc2-c2cccc(C)c2)cc1`, the outcome was inactive and the inhibition was determined as 76.2%. Under setting [1], this compound gave a pIC50 of 4.17. The compound also gave a negative logarithm of the IC50 (pIC50) (CXCR6, run 1, dose range 2) of 4.18. The pIC50 (CXCR6, run 2, dose range 2) was 4.17.
Take `Cc1cc2nc(N3C(=O)CNC3=S)sc2cc1C`: the outcome was inactive and the inhibition was 89.4%. Moreover, the pIC50 under setting [1] is 4.94. This compound also gave a pIC50 (CXCR6, run 1, dose range 2) of 5.08. This compound had a pIC50 (CXCR6, run 2, dose range 2) of 4.83.
The like results for `COC(=O)c1ccc(CCc2cc(O)c(Br)cc2O)cc1` were, in that order, “inactive”, 111%, 4.37, 4.71 and 4.18.
For the compound `COC(=O)c1ccc(/C=C(\C#N)C(=O)NC(C)c2ccccc2)cc1` (stereo not given), the outcome was inactive and the inhibition stood at 112%. The compound also had a negative logarithm of the IC50 (pIC50) under setting [1] of 4.85. Where the note is “CXCR6, run 1, dose range 2”, the pIC50 is 4.87. Under “CXCR6, run 2, dose range 2”, this compound gave a negative logarithm of the IC50 (pIC50) of 4.84.
On to `Nc1cccc2c1C(=O)N(C(=O)/C=C/c1cccc(F)c1)C2=O`, for which the result was inactive and the inhibition is 98.3%. Further, the pIC50 under setting [1] is 4.29. The pIC50 (CXCR6, run 1, dose range 2) is 4.19. Besides, the pIC50 (CXCR6, run 2, dose range 2) is 4.43.
With `Cn1c(=O)[nH]c(=O)c2c1nc(Sc1nc3ccccc3s1)n2Cc1ccccc1`, the result was inactive and the inhibition stood at 77.5%. Under setting [1], the pIC50 was 4.66. The same compound showed a pIC50 (CXCR6, run 1, dose range 2) of 4.74. This compound also gave a pIC50 (CXCR6, run 2, dose range 2) of 4.59.
`CCOC(=O)CS(=O)(=O)c1nc(-c2ccccc2)cc(C(F)(F)F)n1`: the outcome was inactive and the inhibition came out at 108%. The same compound showed a negative logarithm of the IC50 (pIC50) under setting [1] of 4.72. The negative logarithm of the IC50 (pIC50) (CXCR6, run 1, dose range 2) was 4.75. For the setting “CXCR6, run 2, dose range 2”, this compound gave a negative logarithm of the IC50 (pIC50) of 4.70.
Take `C[n+]1ccc(/C=N/Nc2nc(Cl)c(C#N)c(Cl)c2Cl)cc1`: the result was inactive and the inhibition was determined as 90.5%. The same compound had a pIC50 under setting [1] of 4.35. Moreover, the negative-log IC50 (pIC50) (CXCR6, run 1, dose range 2) was 4.63. The same compound showed a negative logarithm of the IC50 (pIC50) (CXCR6, run 2, dose range 2) of 4.18.
`CC(Oc1ccccc1)C(=O)Nc1nc(-c2ccccn2)cs1` (stereo not given): the outcome was inactive and the inhibition amounted to 97.6%. For the same compound, the pIC50 under setting [1] was 4.84. The pIC50 (CXCR6, run 1, dose range 2) was 4.94. For the setting “CXCR6, run 2, dose range 2”, the pIC50 was 4.76.
In the same order, the values of `O=C(NCc1ccc2c(c1)OCO2)c1nc(S(=O)(=O)Cc2ccccc2F)ncc1Cl` are “inactive”, 111%, 4.79, 4.81 and 4.77.
For `COc1cc(C2C(C#N)=C(N)Oc3n[nH]c(-c4cccs4)c32)cc(OC)c1O` (stereo not given), the outcome was inactive and the inhibition was determined as 70.9%. For the same compound, the pIC50 under setting [1] was 4.33. Also, the negative logarithm of the IC50 (pIC50) (CXCR6, run 1, dose range 2) is 4.44. The pIC50 (CXCR6, run 2, dose range 2) was 4.23.
Consider `Cc1ccc(NCC(=O)c2ccc(C)cc2)cc1`, for which the outcome was active and the inhibition stood at 58.5%. For the same compound, the negative logarithm of the IC50 (pIC50) under setting [1] was 5.26. The pIC50 (CXCR6, run 1, dose range 2) is 5.26. The pIC50 (CXCR6, run 2, dose range 2) is below 4.10.
As to `Cc1ccc(NC(=O)c2nc(S(=O)(=O)Cc3ccccc3C)ncc2Cl)cc1C`, the result was inactive and the inhibition came to 104%. Further, under setting [1], the pIC50 is 4.86. For the same compound, the negative-log IC50 (pIC50) (CXCR6, run 1, dose range 2) was 4.89. Under “CXCR6, run 2, dose range 2”, this compound showed a negative logarithm of the IC50 (pIC50) of 4.84.
As to `CCCC(=O)OCCNc1cc(SCCC(=O)OC)c2nonc2c1[N+](=O)[O-]`, the outcome was inactive and the inhibition came to 108%. Besides, under setting [1], the pIC50 is 4.66. The compound further showed a negative-log IC50 (pIC50) (CXCR6, run 1, dose range 2) of 4.63. Under “CXCR6, run 2, dose range 2”, this compound gave a pIC50 of 4.69.
In the same order, the values of `O=C(NNC(=O)c1cc(-c2ccccc2)nn1-c1ccccc1)c1ccccc1` are “inactive”, 75%, 4.94, 4.98 and 4.90.
Take `CC(=NO)C1CCC2C3CCC4=CC(=NO)CCC4(C)C3C(O)CC12C` (stereo not given): the result was inactive and the inhibition was found to be 75.2%. Under setting [1], this compound had a pIC50 of 4.54. This compound gave a negative logarithm of the IC50 (pIC50) (CXCR6, run 1, dose range 2) of 4.90. This compound also gave a pIC50 (CXCR6, run 2, dose range 2) of 4.34.
Take `COc1ccc2nc(-n3c(O)c(C4=c5ccccc5=NC4=O)[nH]c3=S)sc2c1`: the outcome was inactive and the inhibition was found to be 109%. The pIC50 under setting [1] is 4.52. Moreover, the pIC50 (CXCR6, run 1, dose range 2) is 4.58. Besides, the negative-log IC50 (pIC50) (CXCR6, run 2, dose range 2) was 4.47.
The like results for `FC(F)(F)c1cnc(NNC(=S)Nc2cccnc2)c(Cl)c1` were, in that order, “inactive”, 107%, 4.68, 4.93 and 4.52.
As to `CC1=CC(C)(C)N2C(=O)C(=Nc3ccc(O)cc3)c3cccc1c32`, the result was inactive and the inhibition amounted to 84%. The compound also had a pIC50 under setting [1] of 4.24. This compound gave a pIC50 (CXCR6, run 1, dose range 2) of 4.11. Under “CXCR6, run 2, dose range 2”, the pIC50 was 4.42.
For `CN(c1ccccc1)c1ccc(/C=C/[N+](=O)[O-])cc1`, the result was inactive and the inhibition is 114%. Under setting [1], this compound gave a pIC50 of 4.94. The compound further had a negative-log IC50 (pIC50) (CXCR6, run 1, dose range 2) of 4.99. Besides, the negative logarithm of the IC50 (pIC50) (CXCR6, run 2, dose range 2) is 4.90.
Consider `CCCCC(=O)NC(=S)NNC(=O)c1ccc(OC)cc1`, for which the outcome was inactive and the inhibition came out at 98%. Under setting [1], the pIC50 was 4.94. Moreover, the pIC50 (CXCR6, run 1, dose range 2) is 4.99. The pIC50 (CXCR6, run 2, dose range 2) is 4.89.
In the case of `CCCc1cc(=O)oc2cc(OC(=O)CN3C(=O)NC4(CCCC4)C3=O)ccc12`, the outcome was inactive and the inhibition is 61.7%. This compound showed a pIC50 under setting [1] of 4.30. For the setting “CXCR6, run 1, dose range 2”, this compound showed a pIC50 of 4.30. The compound also showed a pIC50 (CXCR6, run 2, dose range 2) below 4.10.
For `O=C1C=CC(=O)N1c1ccc(N2CCCCC2)cc1`, the result was inactive and the inhibition came to 113%. The compound further showed a pIC50 under setting [1] of 4.74. Also, under “CXCR6, run 1, dose range 2”, the negative-log IC50 (pIC50) is 4.76. Besides, the pIC50 (CXCR6, run 2, dose range 2) was 4.72.
In the same order, the values of `Cc1ccc(CS(=O)(=O)c2ncc(Cl)c(C(=O)Nc3ccc(OC(F)F)cc3)n2)cc1` are “inactive”, 105%, 4.90, 4.90 and below 4.10.
As for `Cn1c(=O)n(C)c2cc([N+](=O)[O-])c(N3CCN(C(=O)c4cccc(Cl)c4)CC3)cc21`, the result was inactive and the inhibition came to 60.7%. The same compound had a pIC50 under setting [1] of 4.95. This compound gave a negative-log IC50 (pIC50) (CXCR6, run 1, dose range 2) of 4.95. This compound also showed a pIC50 (CXCR6, run 2, dose range 2) of 4.96.
With `CC(=O)OC1CCC2(C)C(CCC3C4CC=C(C(C)=O)C4(C)OC(=O)CC32)C1` (stereo not given), the outcome was inactive and the inhibition came out at 96.2%. The compound also showed a negative logarithm of the IC50 (pIC50) under setting [1] of 4.62. The same compound gave a negative logarithm of the IC50 (pIC50) (CXCR6, run 1, dose range 2) of 4.65. For the same compound, the negative logarithm of the IC50 (pIC50) (CXCR6, run 2, dose range 2) is 4.59.
Take `Cc1ccc(C(=O)NNC(=S)NC(=O)c2ccccc2)cc1`: the result was inactive and the inhibition worked out at 84.4%. Under setting [1], the pIC50 was 4.70. Also, the negative-log IC50 (pIC50) (CXCR6, run 1, dose range 2) was 4.74. The same compound showed a pIC50 (CXCR6, run 2, dose range 2) of 4.65.
Take `Cc1cc(O)c(-c2cc(O)c(C)cc2O)cc1O`: the outcome was inactive and the inhibition turned out to be 114%. This compound also had a negative logarithm of the IC50 (pIC50) under setting [1] of 4.85. The compound further had a pIC50 (CXCR6, run 1, dose range 2) of 4.87. Where the note is “CXCR6, run 2, dose range 2”, this compound showed a negative-log IC50 (pIC50) of 4.84.
Regarding `COc1cccc(-c2nnc(NC(=O)c3ccc(Cl)s3)o2)c1`, the result was inactive and the inhibition was 67.6%. The compound further showed a negative logarithm of the IC50 (pIC50) under setting [1] of 4.84. Besides, the pIC50 (CXCR6, run 1, dose range 2) is 4.90. Further, the negative-log IC50 (pIC50) (CXCR6, run 2, dose range 2) is 4.79.
As for `COC(=O)c1ccccc1-c1c2ccc(=N)cc-2oc2cc(N)ccc12`, the outcome was inactive and the inhibition is 88.3%. This compound also gave a pIC50 under setting [1] of 4.75. The same compound showed a pIC50 (CXCR6, run 1, dose range 2) of 4.77. Moreover, the negative-log IC50 (pIC50) (CXCR6, run 2, dose range 2) is 4.73.
In the same order, the values of `Cc1cccc(CS(=O)(=O)c2ncc(Cl)c(C(=O)NCc3ccc4c(c3)OCO4)n2)c1` are “inactive”, 109%, 4.77, 4.80 and 4.75.
With `COc1ccc(C(=O)/C=C/Sc2nc3ccccc3o2)cc1`, the result was inactive and the inhibition was 61.3%. Under setting [1], the pIC50 was 4.35. In addition, the negative logarithm of the IC50 (pIC50) (CXCR6, run 1, dose range 2) was 4.66. Also, the pIC50 (CXCR6, run 2, dose range 2) is 4.17.
`CCOc1cc(/C=C2\N=C(SCC)SC2=O)cc([N+](=O)[O-])c1OC(C)=O`: the result was inactive and the inhibition was determined as 95.5%. Moreover, the pIC50 under setting [1] is 4.41. Further, the pIC50 (CXCR6, run 1, dose range 2) is 4.62. Further, the negative-log IC50 (pIC50) (CXCR6, run 2, dose range 2) was 4.26.
With `O=[N+]([O-])c1ccc(Sc2nc3ccccc3o2)c([N+](=O)[O-])c1`, the result was inactive and the inhibition turned out to be 82.2%. Under setting [1], this compound showed a negative logarithm of the IC50 (pIC50) of 4.35. Moreover, the pIC50 (CXCR6, run 1, dose range 2) is 4.15. In addition, where the note is “CXCR6, run 2, dose range 2”, the pIC50 is 4.70.
Take `O=C1CC(Sc2nnnn2-c2ccccc2)C(=O)N1c1cccc(Cl)c1` (stereo not given): the outcome was inactive and the inhibition stood at 112%. In addition, the pIC50 under setting [1] is 4.92. Further, the pIC50 (CXCR6, run 1, dose range 2) was 4.93. Also, the pIC50 (CXCR6, run 2, dose range 2) was 4.92.
As to `Nc1nc(N)c2c(ccc3c2ccn3Cc2cccc([N+](=O)[O-])c2)n1`, the outcome was inactive and the inhibition stood at 110%. In addition, under setting [1], the negative logarithm of the IC50 (pIC50) was 4.77. For the setting “CXCR6, run 1, dose range 2”, the pIC50 was 4.80. The compound further had a pIC50 (CXCR6, run 2, dose range 2) of 4.75.
